Twelve compounds from patent publication EP4678638A1, “NEW E3 UBIQUITIN LIGASE LIGAND, PROTEIN DEGRADATION AGENT AND USE THEREOF” (priority 2023, dated 2024) can be followed below.

The target of one assay is T1, RSK1 (Homo sapiens, UniProt Q15418).
T1 construct: evaluate the effects of the compounds of the present disclosure on the expression of target proteins in cells; endogenous in cells; host or cells: hPBMC
The experiment in a line: Western blot degradation of RSK1 (hPBMC). Format: cell-based. To be noted: Table D8. Here is the method: (§1) Conventional Western blot assay was performed to evaluate the effects of the compounds of the present disclosure on the expression of target proteins in cells.
(§2) (1) Cell Seeding and Protein Harvesting: The selected cells were processed according to the cell seeding procedure and protein harvesting procedure in Table III-2. Table III-2 Cell Seeding and Protein Harvesting Procedures
(§3) (2) To the collected supernatant, 5X SDS sample loading buffer was added, followed by denaturation at 95°C for 5 minutes. The denatured samples were then separated by SDS-PAGE electrophoresis on a polyacrylamide gel. Proteins were transferred to a nitrocellulose membrane (0.45 µm NC membrane), blocked with blocking buffer at room temperature for 1 hour, and subjected to antibody incubation and development procedures according to the antibody manufacturer's instructions (Cell Signaling Technology).
(§4) Half-Maximal Degradation Concentration value (the drug concentration required for degrading proteins by 50%, abbreviated as DC50) reads method: comparing the grayscale values of Western blot bands from drug-treated samples with those from blank DMSO-treated controls, and identifying the drug concentration range at which the grayscale value is half that of the DMSO-treated control bands.
(§5) DC50 values can be calculated using ImageJ software to measure grayscale values of Western blot bands from drug-treated samples. The concentration-response curve is fitted to estimate the drug concentration corresponding to half the grayscale value.
(§6) Target protein remaining (%) refers to the percentage of target protein remaining in hPBMC cells after treatment with protein degrader compounds.
(§7) Calculation method for target protein remaining (%): Use ImageJ software to measure grayscale values of Western blot bands from drug (protein degrader)-treated samples. The grayscale value of drug-treated bands is divided by that of internal control protein bands, and the resulting quotient is normalized to obtain the relative percentage of remaining target protein after protein degrader treatment.
(§8) Target protein degradation rate (%) = 100% - target protein remaining (%).

Another assay has as its target T2, RSK2 (Homo sapiens, UniProt P51812).
T2 construct: evaluate the effects of the compounds of the present disclosure on the expression of target proteins in cells; endogenous in cells; host or cells: hPBMC
Put plainly: Western blot degradation of RSK2 (hPBMC). To be noted: Table D8. Type of assay: cell-based. Here is the method: as §1, §2, §3, §4, §5, §6, §7, §8

T1 sequence (Q15418 whole entry): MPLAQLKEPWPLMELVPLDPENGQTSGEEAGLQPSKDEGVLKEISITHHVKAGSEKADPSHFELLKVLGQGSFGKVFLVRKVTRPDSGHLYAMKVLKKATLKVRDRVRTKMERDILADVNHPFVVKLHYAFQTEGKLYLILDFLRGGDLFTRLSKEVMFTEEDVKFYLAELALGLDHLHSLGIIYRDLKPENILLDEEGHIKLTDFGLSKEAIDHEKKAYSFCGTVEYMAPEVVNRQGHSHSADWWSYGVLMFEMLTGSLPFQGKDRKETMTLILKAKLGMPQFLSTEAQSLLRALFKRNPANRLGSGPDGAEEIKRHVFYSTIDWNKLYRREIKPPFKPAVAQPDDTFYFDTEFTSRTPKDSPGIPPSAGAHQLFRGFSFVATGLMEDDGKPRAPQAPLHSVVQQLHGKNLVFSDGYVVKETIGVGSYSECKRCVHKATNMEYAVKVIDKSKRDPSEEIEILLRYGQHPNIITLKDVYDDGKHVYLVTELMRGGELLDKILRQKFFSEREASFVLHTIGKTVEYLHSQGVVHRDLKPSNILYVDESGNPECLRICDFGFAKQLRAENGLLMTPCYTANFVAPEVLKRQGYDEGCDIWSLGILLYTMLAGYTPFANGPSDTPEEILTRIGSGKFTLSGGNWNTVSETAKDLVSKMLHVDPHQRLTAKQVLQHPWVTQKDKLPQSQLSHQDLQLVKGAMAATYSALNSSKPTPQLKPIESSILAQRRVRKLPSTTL
T2 sequence (P51812 whole entry): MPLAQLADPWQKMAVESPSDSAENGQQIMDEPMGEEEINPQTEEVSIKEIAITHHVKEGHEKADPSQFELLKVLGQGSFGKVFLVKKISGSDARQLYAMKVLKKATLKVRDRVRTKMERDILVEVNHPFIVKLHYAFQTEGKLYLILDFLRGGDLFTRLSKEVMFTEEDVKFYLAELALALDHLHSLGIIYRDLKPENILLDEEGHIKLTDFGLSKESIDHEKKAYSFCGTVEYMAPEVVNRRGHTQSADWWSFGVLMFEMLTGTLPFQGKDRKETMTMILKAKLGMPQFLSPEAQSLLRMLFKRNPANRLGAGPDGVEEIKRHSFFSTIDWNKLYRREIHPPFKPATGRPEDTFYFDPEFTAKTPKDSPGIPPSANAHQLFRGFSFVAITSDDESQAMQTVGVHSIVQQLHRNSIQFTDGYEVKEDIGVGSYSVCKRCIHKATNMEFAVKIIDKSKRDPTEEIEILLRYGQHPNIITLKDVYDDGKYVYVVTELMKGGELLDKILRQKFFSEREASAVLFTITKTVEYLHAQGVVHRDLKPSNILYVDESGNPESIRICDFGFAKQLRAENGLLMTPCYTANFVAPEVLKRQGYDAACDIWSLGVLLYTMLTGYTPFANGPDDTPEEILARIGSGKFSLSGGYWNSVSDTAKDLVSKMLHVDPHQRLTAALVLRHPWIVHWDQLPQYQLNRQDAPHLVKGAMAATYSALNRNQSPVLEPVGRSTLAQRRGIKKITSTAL

For the compound `C[C@@H]1CNCc2cc3ccc(C(=O)Nc4cnn(Cc5ccc(N6CCC(N(C)Cc7ccc(N8CCC(=O)NC8=O)nc7)CC6)cc5)c4)nc3n21` [GT-07941, (R)-N-(1-(4-(4-(((6-(2,4-dioxotetrahydropyrimidin-1(2H)-yl)pyridin-3-yl)methyl)(methyl)amino)piperidin-1-yl)benzyl)-1H-pyrazol-4-yl)-9-methyl-6,7,8,9-tetrahydropyrido[3',2':4,5]py rrolo[1,2-a]pyrazine-2-carboxamide], the “Degradation of substrate protein RSK1 (substrate protein remaining %)” value at RSK1 is given as “A (A is defined as 0% ≤ substrate protein remaining % ≤ 80%)”. The “Degradation of substrate protein RSK2 (substrate protein remaining %)” value on RSK2 was “A (A is defined as 0% ≤ substrate protein remaining % ≤ 80%)”.

As to `C[C@@H]1CNC(=O)c2cc3ccc(C(=O)Nc4cnn(Cc5ccc(N6CCC(N(C)Cc7cccc(NC8CCC(=O)NC8=O)c7)CC6)cc5)c4)nc3n21` (stereo partly drawn) [GT-07942, (9R)-N-(1-(4-(4-((3-((2,6-dioxopiperidin-3-yl)amino)benzyl)(methyl)amino)piperidin-1-yl)benzyl)-1H-pyrazol-4-yl)-9-methyl-6-oxo-6,7,8,9-tetrahydropyrido[3',2':4,5]py rrolo[1,2-a]pyrazine-2-carboxamide], the “Degradation of substrate protein RSK1 (substrate protein remaining %)” value on RSK1 was “A (A is defined as 0% ≤ substrate protein remaining % ≤ 80%)”. Further, on RSK2, the “Degradation of substrate protein RSK2 (substrate protein remaining %)” value is listed as “A (A is defined as 0% ≤ substrate protein remaining % ≤ 80%)”.

Regarding `C[C@@H]1CNC(=O)c2cc3ccc(C(=O)Nc4cnn(Cc5ccc(N6CCC(N(C)Cc7cc(N8CCC(=O)NC8=O)ncc7F)CC6)cc5)c4)nc3n21` [GT-07943, (R)-N-(1-(4-(4-(((2-(2,4-dioxotetrahydropyrimidin-1(2H)-yl)-5-fluoropyridin-4-yl)methyl)(methyl)amino)piperidin-1-yl)benzyl)-1H-pyrazol-4-yl)-9-methyl-6-oxo-6,7,8,9-tetrahydropyrido[3',2':4,5]py rrolo[1,2-a]pyrazine-2-carboxamide], the “Degradation of substrate protein RSK1 (substrate protein remaining %)” value at RSK1 is reported as “A (A is defined as 0% ≤ substrate protein remaining % ≤ 80%)”. The “Degradation of substrate protein RSK2 (substrate protein remaining %)” value at RSK2 was “A (A is defined as 0% ≤ substrate protein remaining % ≤ 80%)”.

With `C[C@@H]1CNC(=O)c2cc3ccc(C(=O)Nc4cnn(Cc5ccc(N6CCC(N(C)Cc7ccnc(N8CCC(=O)NC8=O)c7)CC6)cc5)c4)nc3n21` [GT-07944, (R)-N-(1-(4-(4-(((2-(2,4-dioxotetrahydropyrimidin-1(2H)-yl)pyridin-4-yl)methyl)(methyl)amino)piperidin-1-yl)benzyl)-1H-pyrazol-4-yl)-9-methyl-6-oxo-6,7,8,9-tetrahydropyrido[3',2':4,5]py rrolo[1,2-a]pyrazine-2-carboxamide], the “Degradation of substrate protein RSK1 (substrate protein remaining %)” value on RSK1 is “A (A is defined as 0% ≤ substrate protein remaining % ≤ 80%)”. Also, the “Degradation of substrate protein RSK2 (substrate protein remaining %)” value at RSK2 was “A (A is defined as 0% ≤ substrate protein remaining % ≤ 80%)”.

Regarding `C[C@@H]1CNC(=O)c2cc3ccc(C(=O)Nc4cnn(Cc5ccc(N6CCC(N(C)Cc7cncc(N8CCC(=O)NC8=O)c7)CC6)cc5)c4)nc3n21` [GT-07945, (R)-N-(1-(4-(4-(((5-(2,4-dioxotetrahydropyrimidin-1(2H)-yl)pyridin-3-yl)methyl)(methyl)amino)piperidin-1-yl)benzyl)-1H-pyrazol-4-yl)-9-methyl-6-oxo-6,7,8,9-tetrahydropyrido[3',2':4,5]py rrolo[1,2-a]pyrazine-2-carboxamide], the “Degradation of substrate protein RSK1 (substrate protein remaining %)” value at RSK1 was “A (A is defined as 0% ≤ substrate protein remaining % ≤ 80%)”. In addition, the “Degradation of substrate protein RSK2 (substrate protein remaining %)” value at RSK2 was “A (A is defined as 0% ≤ substrate protein remaining % ≤ 80%)”.

On to `C[C@@H]1CNC(=O)c2cc3ccc(C(=O)Nc4cnn(Cc5ccc(N6CCC(N(C)Cc7ccnc(C8CCC(=O)NC8=O)c7)CC6)cc5)c4)nc3n21` (stereo partly drawn) [GT-07947, (9R)-N-(1-(4-(4-(((2-(2,6-dioxopiperidin-3-yl)pyridin-4-yl)methyl)(methyl)amino)piperidin-1-yl)benzyl)-1H-pyrazol-4-yl)-9-methyl-6-oxo-6,7,8,9-tetrahydropyrido[3',2':4,5]py rrolo[1,2-a]pyrazine-2-carboxamide], for which the “Degradation of substrate protein RSK1 (substrate protein remaining %)” value at RSK1 is “A (A is defined as 0% ≤ substrate protein remaining % ≤ 80%)”. The “Degradation of substrate protein RSK2 (substrate protein remaining %)” value at RSK2 was “A (A is defined as 0% ≤ substrate protein remaining % ≤ 80%)”.

Regarding `C[C@@H]1CNC(=O)c2cc3ccc(C(=O)Nc4cnn(Cc5ccc(N6CCC(N(C)Cc7cncc(C8CCC(=O)NC8=O)c7)CC6)cc5)c4)nc3n21` (stereo partly drawn) [GT-07948, (9R)-N-(1-(4-(4-(((5-(2,6-dioxopiperidin-3-yl)pyridin-3-yl)methyl)(methyl)amino)piperidin-1-yl)benzyl)-1H-pyrazol-4-yl)-9-methyl-6-oxo-6,7,8,9-tetrahydropyrido[3',2':4,5]py rrolo[1,2-a]pyrazine-2-carboxamide], on RSK1, the “Degradation of substrate protein RSK1 (substrate protein remaining %)” value is “A (A is defined as 0% ≤ substrate protein remaining % ≤ 80%)”. In addition, the “Degradation of substrate protein RSK2 (substrate protein remaining %)” value on RSK2 is on record as “A (A is defined as 0% ≤ substrate protein remaining % ≤ 80%)”.

Take `C[C@@H]1CNC(=O)c2cc3ccc(C(=O)Nc4cnn(Cc5ccc(N6CCC(N(C)Cc7cc(N8CCC(=O)NC8=O)cnc7F)CC6)cc5)c4)nc3n21` [GT-07949, (R)-N-(1-(4-(4-(((5-(2,4-dioxotetrahydropyrimidin-1(2H)-yl)-2-fluoropyridin-3-yl)methyl)(methyl)amino)piperidin-1-yl)benzyl)-1H-pyrazol-4-yl)-9-methyl-6-oxo-6,7,8,9-tetrahydropyrido[3',2':4,5]py rrolo[1,2-a]pyrazine-2-carboxamide]: on RSK1, the “Degradation of substrate protein RSK1 (substrate protein remaining %)” value was “A (A is defined as 0% ≤ substrate protein remaining % ≤ 80%)”. The “Degradation of substrate protein RSK2 (substrate protein remaining %)” value at RSK2 is recorded as “A (A is defined as 0% ≤ substrate protein remaining % ≤ 80%)”.

Regarding `C[C@@H]1CNC(=O)c2cc3ccc(C(=O)Nc4cnn(Cc5ccc(N6CCC(N(C)Cc7cnc(N8CCC(=O)NC8=O)cn7)CC6)cc5)c4)nc3n21` [GT-07950, (R)-N-(1-(4-(4-(((5-(2,4-dioxotetrahydropyrimidin-1(2H)-yl)pyrazin-2-yl)methyl)(methyl)amino)piperidin-1-yl)benzyl)-1H-pyrazol-4-yl)-9-methyl-6-oxo-6,7,8,9-tetrahydropyrido[3',2':4,5]py rrolo[1,2-a]pyrazine-2-carboxamide], the “Degradation of substrate protein RSK1 (substrate protein remaining %)” value on RSK1 is “A (A is defined as 0% ≤ substrate protein remaining % ≤ 80%)”. Besides, the “Degradation of substrate protein RSK2 (substrate protein remaining %)” value on RSK2 is recorded as “A (A is defined as 0% ≤ substrate protein remaining % ≤ 80%)”.

With `C[C@@H]1CNC(=O)c2cc3ccc(C(=O)Nc4cnn(Cc5ccc(N6CCC(N7CCN(Cc8ccc(C9CCC(=O)NC9=O)cc8)CC7)CC6)cc5)c4)nc3n21` (stereo partly drawn) [GT-07951, (9R)-N-(1-(4-(4-(4-(4-(2,6-dioxopiperidin-3-yl)benzyl)piperazin-1-yl)piperidin-1-yl)benzyl)-1H-pyrazol-4-yl)-9-methyl-6-oxo-6,7,8,9-tetrahydropyrido[3',2':4,5]py rrolo[1,2-a]pyrazine-2-carboxamide], at RSK1, the “Degradation of substrate protein RSK1 (substrate protein remaining %)” value is listed as “A (A is defined as 0% ≤ substrate protein remaining % ≤ 80%)”. Also, the “Degradation of substrate protein RSK2 (substrate protein remaining %)” value on RSK2 is listed as “A (A is defined as 0% ≤ substrate protein remaining % ≤ 80%)”.

With `C[C@@H]1CNC(=O)c2cc3ccc(C(=O)Nc4cnn(Cc5ccc(N6CCC(N7CCN(Cc8ccc(N9CCC(=O)NC9=O)cc8)CC7)CC6)cc5)c4)nc3n21` [GT-07952, (R)-N-(1-(4-(4-(4-(4-(2,4-dioxotetrahydropyrimidin-1(2H)-yl)benzyl)piperazin-1-yl)piperidin-1-yl)benzyl)-1H-pyrazol-4-yl)-9-methyl-6-oxo-6,7,8,9-tetrahydropyrido[3',2':4,5]pyrrolo[1,2-a]pyrazine-2-carboxamide], at RSK1, the “Degradation of substrate protein RSK1 (substrate protein remaining %)” value is “A (A is defined as 0% ≤ substrate protein remaining % ≤ 80%)”. The “Degradation of substrate protein RSK2 (substrate protein remaining %)” value on RSK2 was “A (A is defined as 0% ≤ substrate protein remaining % ≤ 80%)”.

For `C[C@@H]1CNC(=O)c2cc3ccc(C(=O)Nc4cnn(Cc5ccc(N6CCC(N7CCN(Cc8ccc(N9CCC(=O)NC9=O)nc8)CC7)CC6)cc5)c4)nc3n21` [GT-07955, (R)-N-(1-(4-(4-(4-((6-(2,4-dioxotetrahydropyrimidin-1(2H)-yl)pyridin-3-yl)methyl)piperazin-1-yl)piperidin-1-yl)benzyl)-1H-pyrazol-4-yl)-9-methyl-6-oxo-6,7,8,9-tetrahydropyrido[3',2':4,5]pyrrolo[1,2-a]pyrazine-2-carboxamide], the “Degradation of substrate protein RSK1 (substrate protein remaining %)” value on RSK1 was “A (A is defined as 0% ≤ substrate protein remaining % ≤ 80%)”. On RSK2, the “Degradation of substrate protein RSK2 (substrate protein remaining %)” value was “A (A is defined as 0% ≤ substrate protein remaining % ≤ 80%)”.
